Patent US11203574B2 (BioCryst Pharmaceuticals, Inc., priority 2014, dated 2021)

Biological target: human plasma kallikrein (Homo sapiens (Human), UniProt P03952)
Test: Plasma kallikrein activity assay (chromogenic substrate S2302)
Type: biochemical
Conditions: 2 nM kallikrein, 80 μM S2302, 30° C., pH 7.8; Ki by Cheng-Prusoff equation; values given as ranges; read-out: Ki
Experimental: Plasma Kallikrein Activity Assay.
The effect of compounds of the invention on human plasma kallikrein activity was determined using the chromogenic substrates (DiaPharma Group, Inc., West Chester, Ohio, USA). In these experiments, 2 nM kallikrein (Enzyme Research Laboratories, South Bend, Ind., USA) was incubated with 80 μM S2302 (H-D-Pro-Phe-Arg-p-nitroaniline) in the absence or presence of increasing concentrations of compounds of the invention in a final volume of 200 μL Tris-HCl buffer (200 mM NaCl; mM CaCl2; 50 mM Tris-HCl, pH 7.8).
Data were analyzed using SigmaPlot software (Systat Software, Inc., San Jose, Calif., USA) (Four Parameter Logistic Curve).

Chain of human plasma kallikrein (P03952 whole entry, looked up): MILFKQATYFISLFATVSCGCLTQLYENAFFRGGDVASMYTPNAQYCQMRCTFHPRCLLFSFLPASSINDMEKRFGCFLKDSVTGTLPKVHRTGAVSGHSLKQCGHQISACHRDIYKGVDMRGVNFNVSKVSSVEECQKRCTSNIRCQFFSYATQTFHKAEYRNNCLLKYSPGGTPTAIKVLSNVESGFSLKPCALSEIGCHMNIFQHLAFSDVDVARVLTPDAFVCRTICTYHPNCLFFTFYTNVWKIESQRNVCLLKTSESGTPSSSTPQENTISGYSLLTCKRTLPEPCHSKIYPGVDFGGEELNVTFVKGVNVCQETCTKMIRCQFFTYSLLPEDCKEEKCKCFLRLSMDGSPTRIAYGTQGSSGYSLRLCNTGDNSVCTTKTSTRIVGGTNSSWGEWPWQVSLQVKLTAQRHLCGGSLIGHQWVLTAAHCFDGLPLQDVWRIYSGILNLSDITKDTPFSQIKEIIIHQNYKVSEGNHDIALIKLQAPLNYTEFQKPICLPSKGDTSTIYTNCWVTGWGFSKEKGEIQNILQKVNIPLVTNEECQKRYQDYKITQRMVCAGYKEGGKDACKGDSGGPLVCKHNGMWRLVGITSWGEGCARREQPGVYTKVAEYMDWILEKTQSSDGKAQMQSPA
Chain of human plasma kallikrein (P03952 whole entry partner, looked up): as the sequence (P03952 whole entry, looked up) above

SMILES | Ki [nM]
NCc1cccc(-n2nc(C(F)(F)F)cc2C(=O)Nc2cccc(C(NCC3CC3)c3ccccn3)c2)c1 (stereo not drawn) [83c, 1-(3-(aminomethyl)phenyl)-N-(3-((cyclopropylmethylamino)(pyridin-2-yl)methyl)phenyl)-3-(trifluoromethyl)-1H-pyrazole-5-carboxamide] | 0.1 to 50
NCc1cccc(-n2nc(C(F)(F)F)cc2C(=O)Nc2cccc(C(NCC3CC3)c3cn[nH]c3)c2)c1 (stereo not drawn) [84h, 1-(3-(aminomethyl)phenyl)-N-(3-(((cyclopropylmethyl)amino)(1H-pyrazol-4-yl)methyl)phenyl)-3-(trifluoromethyl)-1H-pyrazole-5-carboxamide] | 0.1 to 50
NCc1cccc(-n2nc(C(F)(F)F)cc2C(=O)Nc2cccc(C(NCC3CC3)c3nccs3)c2)c1 (stereo not drawn) [85c, 1-(3-(aminomethyl)phenyl)-N-(3-((cyclopropylmethylamino)(thiazol-2-yl)methyl)phenyl)-3-(trifluoromethyl)-1H-pyrazole-5-carboxamide] | 0.1 to 50
NCc1cccc(-n2nc(C(F)(F)F)cc2C(=O)Nc2cccc(C(NCC3CC3)c3ccncc3)c2)c1 (stereo not drawn) [86g, 1-(3-(aminomethyl)phenyl)-N-(3-((cyclopropylmethylamino)(pyridin-4-yl)methyl)phenyl)-3-(trifluoromethyl)-1H-pyrazole-5-carboxamide] | 0.1 to 50
NCc1cccc(-n2nc(C(F)(F)F)cc2C(=O)Nc2cccc(N(CCC3CC3)c3ccccc3)c2)c1 [87f, 1-(3-(aminomethyl)phenyl)-N-(3-((2-cyclopropylethyl)(phenyl)amino)phenyl)-3-(trifluoromethyl)-1H-pyrazole-5-carboxamide] | 0.1 to 50
NCc1cccc(-n2nc(C(F)(F)F)cc2C(=O)Nc2cccc(C(NCC3CC3)c3ccccc3)c2F)c1 (stereo not drawn) [88b, 1-(3-(aminomethyl)phenyl)-N-(3-((cyclopropylmethylamino)(phenyl)methyl)-2-fluorophenyl)-3-(trifluoromethyl)-1H-pyrazole-5-carboxamide] | 0.1 to 50
NCc1cccc(-n2nc(C(F)(F)F)cc2C(=O)Nc2cccc(C(CCC3CC3)n3ccnc3)c2)c1 (stereo not drawn) [89g, 1-(3-(aminomethyl)phenyl)-N-(3-(3-cyclopropyl-1-(1H-imidazol-1-yl)propyl)phenyl)-3-(trifluoromethyl)-1H-pyrazole-5-carboxamide] | 0.1 to 50
NCc1cccc(-n2nc(C(F)(F)F)cc2C(=O)Nc2cccc(C(O)(CCC3CC3)c3ccncc3)c2)c1 (stereo not drawn) [92g, 1-(3-(aminomethyl)phenyl)-N-(3-(3-cyclopropyl-1-hydroxy-1-(pyridin-4-yl)propyl)phenyl)-3-(trifluoromethyl)-1H-pyrazole-5-carboxamide] | 0.1 to 50
NCc1cccc(-n2nc(C(F)(F)F)cc2C(=O)Nc2cc(C(NCC3CC3)c3cccnc3)ccc2F)c1 (stereo not drawn) [94b, 1-(3-(aminomethyl)phenyl)-N-(5-((cyclopropylmethylamino)(pyridin-3-yl)methyl)-2-fluorophenyl)-3-(trifluoromethyl)-1H-pyrazole-5-carboxamide] | 0.1 to 50
NCc1cccc(-n2nc(C(F)(F)F)cc2C(=O)Nc2cc(C(NCC3CC3)c3cccnc3)ccc2Cl)c1 (stereo not drawn) [96f, 1-(3-(Aminomethyl)phenyl)-N-(2-chloro-5-((cyclopropylmethylamino)(pyridin-3-yl)methyl)phenyl)-3-(trifluoromethyl)-1H-pyrazole-5-carboxamide] | 0.1 to 50
NCc1cccc(-n2nc(C(F)(F)F)cc2C(=O)Nc2cccc(C(CCC3CC3)N3CCCC3)c2)c1 (stereo not drawn) [98b, 1-(3-(aminomethyl)phenyl)-N-(3-(3-cyclopropyl-1-(pyrrolidin-1-yl)propyl)phenyl)-3-(trifluoromethyl)-1H-pyrazole-5-carboxamide] | 0.1 to 50
NCc1cccc(-n2nc(C(F)(F)F)cc2C(=O)Nc2cccc(C(O)(CNC3CC3)c3ccccc3)c2)c1 (stereo not drawn) [99g, 1-(3-(aminomethyl)phenyl)-N-(3-(2-(cyclopropylamino)-1-hydroxy-1-phenylethyl)phenyl)-3-(trifluoromethyl)-1H-pyrazole-5-carboxamide] | 0.1 to 50
NCc1cccc(-n2nc(C(F)(F)F)cc2C(=O)Nc2cc(C(NCC3CC3)c3ccccn3)ccc2F)c1 (stereo not drawn) [100e, 1-(3-(aminomethyl)phenyl)-N-(5-((cyclopropylmethylamino)(pyridin-2-yl)methyl)-2-fluorophenyl)-3-(trifluoromethyl)-1H-pyrazole-5-carboxamide] | 0.1 to 50
NCc1cccc(-n2nc(C(F)(F)F)cc2C(=O)Nc2cc(C(NCC3CC3)c3nccs3)ccc2F)c1 (stereo not drawn) [101e, 1-(3-(Aminomethyl)phenyl)-N-(5-((cyclopropylmethylamino)(thiazol-2-yl)methyl)-2-fluorophenyl)-3-(trifluoromethyl)-1H-pyrazole-5-carboxamide] | 0.1 to 50
NCc1cccc(-n2nc(C(F)(F)F)cc2C(=O)Nc2cccc(C(NCC3CC3)c3cccc(N)c3)c2)c1 (stereo not drawn) [102b, 1-(3-(aminomethyl)phenyl)-N-(3-((3-aminophenyl)(cyclopropylmethylamino)methyl)phenyl)-3-(trifluoromethyl)-1H-pyrazole-5-carboxamide] | 0.1 to 50
NCc1cccc(-n2nc(C(F)(F)F)cc2C(=O)Nc2cccc(C(CCC3CC3)c3cc[nH]c3)c2)c1 (stereo not drawn) [103b, 1-(3-(aminomethyl)phenyl)-N-(3-(3-cyclopropyl-1-(1H-pyrrol-3-yl)propyl)phenyl)-3-(trifluoromethyl)-1H-pyrazole-5-carboxamide] | 0.1 to 50
Cn1cc(C(NCC2CC2)c2cccc(NC(=O)c3cc(C(F)(F)F)nn3-c3cccc(CN)c3)c2)cn1 (stereo not drawn) [104f, 1-(3-(aminomethyl)phenyl)-N-(3-((cyclopropylmethylamino)(1-methyl-1H-pyrazol-4-yl)methyl)phenyl)-3-(trifluoromethyl)-1H-pyrazole-5-carboxamide] | 0.1 to 50
COc1ccc(C(NCC2CC2)c2cccc(NC(=O)c3cc(C(F)(F)F)nn3-c3cccc(CN)c3)c2)cc1 (stereo not drawn) [105g, 1-(3-(Aminomethyl)phenyl)-N-(3-(((cyclopropylmethyl)amino)(4-methoxyphenyl)methyl)phenyl)-3-(trifluoromethyl)-1H-pyrazole-5-carboxamide] | 0.1 to 50
NCc1cccc(-n2nc(C(F)(F)F)cc2C(=O)Nc2cccc(C(NCC3CC3)c3ccccc3OCc3ccccc3)c2)c1 (stereo not drawn) [106a, 1-(3-(aminomethyl)phenyl)-N-(3-((2-(benzyloxy)phenyl)(cyclopropylmethylamino)methyl)phenyl)-3-(trifluoromethyl)-1H-pyrazole-5-carboxamide] | 0.1 to 50
COc1cccc(C(NCC2CC2)c2cccc(NC(=O)c3cc(C(F)(F)F)nn3-c3cccc(CN)c3)c2)c1 (stereo not drawn) [109f, 1-(3-(Aminomethyl)phenyl)-N-(3-((cyclopropylmethylamino)(3-methoxyphenyl)methyl)phenyl)-3-(trifluoromethyl)-1H-pyrazole-5-carboxamide] | 0.1 to 50
Cc1cccc(C(NCC2CC2)c2cccc(NC(=O)c3cc(C(F)(F)F)nn3-c3cccc(CN)c3)c2)c1 (stereo not drawn) [110f, 1-(3-(Aminomethyl)phenyl)-N-(3-((cyclopropylmethylamino)(m-tolyl)methyl)phenyl)-3-(trifluoromethyl)-1H-pyrazole-5-carboxamide] | 0.1 to 50
NCc1cccc(-n2nc(C(F)(F)F)cc2C(=O)Nc2cccc(C(NCC3CC3)c3cccc(C(F)(F)F)c3)c2)c1 (stereo not drawn) [111f, 1-(3-(Aminomethyl)phenyl)-N-(3-((cyclopropylmethylamino)(3-(trifluoromethyl)phenyl)methyl)phenyl)-3-(trifluoromethyl)-1H-pyrazole-5-carboxamide] | 0.1 to 50
NCc1cccc(-n2nc(C(F)(F)F)cc2C(=O)Nc2cccc(C(NCC3CC3)c3ccc(S(N)(=O)=O)cc3)c2)c1 (stereo not drawn) [112g, 1-(3-(aminomethyl)phenyl)-N-(3-((cyclopropylmethylamino)(4-sulfamoylphenyl)methyl)phenyl)-3-(trifluoromethyl)-1H-pyrazole-5-carboxamide] | 0.1 to 50
CS(=O)(=O)c1ccc(C(NCC2CC2)c2cccc(NC(=O)c3cc(C(F)(F)F)nn3-c3cccc(CN)c3)c2)cc1 (stereo not drawn) [113f, 1-(3-(aminomethyl)phenyl)-N-(3-((cyclopropylmethylamino)(4-(methylsulfonyl)phenyl)methyl)phenyl)-3-(trifluoromethyl)-1H-pyrazole-5-carboxamide] | 0.1 to 50
CS(=O)(=O)c1cccc(C(NCC2CC2)c2cccc(NC(=O)c3cc(C(F)(F)F)nn3-c3cccc(CN)c3)c2)c1 (stereo not drawn) [114f, 1-(3-(aminomethyl)phenyl)-N-(3-((cyclopropylmethylamino)(3-(methylsulfonyl)phenyl)methyl)phenyl)-3-(trifluoromethyl)-1H-pyrazole-5-carboxamide] | 0.1 to 50
NCc1cccc(-n2nc(C(F)(F)F)cc2C(=O)Nc2cccc(C(NC(=O)C3CC3)c3ccccc3)c2)c1 (stereo not drawn) [115e, 1-(3-(aminomethyl)phenyl)-N-(3-(cyclopropanecarboxamido(phenyl)methyl)phenyl)-3-(trifluoromethyl)-1H-pyrazole-5-carboxamide] | 50 to 100
CCc1cccc(C(NCC2CC2)c2cccc(NC(=O)c3cc(C(F)(F)F)nn3-c3cccc(CN)c3)c2)c1 (stereo not drawn) [116e, 1-(3-(aminomethyl)phenyl)-N-(3-((cyclopropylmethylamino)(3-ethylphenyl)methyl)phenyl)-3-(trifluoromethyl)-1H-pyrazole-5-carboxamide] | 0.1 to 50
NCc1cccc(-n2nc(C(F)(F)F)cc2C(=O)Nc2cccc(C(NCC3CC3)c3ccccc3F)c2)c1 (stereo not drawn) [117e, 1-(3-(aminomethyl)phenyl)-N-(3-((cyclopropylmethylamino)(2-fluorophenyl)methyl)phenyl)-3-(trifluoromethyl)-1H-pyrazole-5-carboxamide] | 0.1 to 50
NCc1cccc(-n2nc(C(F)(F)F)cc2C(=O)Nc2cccc(C(NCC3CC3)c3c4ccccc4c(Cl)c4ccccc34)c2)c1 (stereo not drawn) [118f, 1-(3-(aminomethyl)phenyl)-N-(3-((10-chloroanthracen-9-yl)(cyclopropylmethylamino)methyl)phenyl)-3-(trifluoromethyl)-1H-pyrazole-5-carboxamide] | 0.1 to 50
CS(=O)(=O)c1ccccc1C(NCC1CC1)c1cccc(NC(=O)c2cc(C(F)(F)F)nn2-c2cccc(CN)c2)c1 (stereo not drawn) [121f, 1-(3-(aminomethyl)phenyl)-N-(3-((cyclopropylmethylamino)(2-(methylsulfonyl)phenyl)methyl)phenyl)-3-(trifluoromethyl)-1H-pyrazole-5-carboxamide] | 0.1 to 50
